Experimental data: the supplement of paper PMC11208160

Assay: recombinant barcode read abundance after kanamycin selection (control-corrected) (log10(CPM+1)); higher = more efficient recombination; sequences stand for … in AGTGCAGAGAAAATCGGCCAGTTTTCTCTGCCTGCAGTCCGCATGCCGT…AGATTTATGCAGCGGACTGCCTTTCTCCCAAAGTGATAAACCGGACAGTATCATGGACCGGTTTTCCCGGTAATCCGTATTTGCAAGGTTGGTTTCACT; site = the 11-nt target
Experimental: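 Pooled E. coli target-specificity screen for the IS621 bridge recombinase. Each library plasmid pairs an 11-nt target (CT core) with a bridge RNA whose target-binding loop (9-nt LTG + 4-nt RTG) is reprogrammed; the rest of the 177-nt WT IS621 bridge RNA scaffold is fixed. The plasmid is co-electroporated with a WT donor plasmid; recombinase is induced with 0.1 mM IPTG and recombinants are selected on kanamycin. Recombinant barcodes are sequenced, converted to CPM, averaged over two biological replicates and corrected by the unselected control CPM. Molecule = full bridge RNA written as DNA: LTG = specificity nt 1-9, RTG = reverse complement of specificity nt 8-11, in the WT scaffold.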
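Also: IS621 recombinase and bridge RNA in Escherichia coli cells.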

| Sequence | recombinant barcode read abundance (log10) |
| --- | --- |
| AGGTCACCTTGGGTTCTAACCTGTTGCTT (site AGGTCACCTAC) | 0.0772 |
| AGGTCACCTTGGGTTCTAACCTGTTGCTT (site AGGTCACCTAG) | 0.914 |
| AGGTCACCTTGGGTTCTAACCTGTTGCTT (site AGGTCACCTAT) | 1.24 |
| AGGTCCTCTTGGGTTCTAACCTGTTGCGT (site AGGTCCTCTAA) | 0.295 |
| AGGTCCTCTTGGGTTCTAACCTGTTGCGT (site AGGTCCTCTAC) | 2.67 |
| AGGTCCTCTTGGGTTCTAACCTGTTGCGT (site AGGTCCTCTAG) | 0.73 |
| AGGTCCTCTTGGGTTCTAACCTGTTGCGT (site AGGTCCTCTAT) | 1.71 |
| AGGTCTGCTTGGGTTCTAACCTGTTGCCT (site AGGTATGCTAG) | 0.321 |
| AGGTCTGCTTGGGTTCTAACCTGTTGCCT (site AGGTCTGCTAG) | 0.58 |
| AGGTCTGCTTGGGTTCTAACCTGTTGCCT (site AGGTGTGCTAG) | 0.12 |
| AGGTCTGCTTGGGTTCTAACCTGTTGCCT (site AGGTTTGCTAG) | 0.0282 |
| AGGTGTGCTTGGGTTCTAACCTGTTGCCT (site AGGTATGCTAG) | 0.289 |
| AGGTGTGCTTGGGTTCTAACCTGTTGCCT (site AGGTCTGCTAG) | 0.123 |
| AGGTGTGCTTGGGTTCTAACCTGTTGCCT (site AGGTGTGCTAG) | 1.19 |
| AGGTGTGCTTGGGTTCTAACCTGTTGCCT (site AGGTTTGCTAG) | 0.502 |
| AGGTTCCCTTGGGTTCTAACCTGTTGCTA (site AGGTTCCCTAA) | 0.0211 |
| AGGTTCCCTTGGGTTCTAACCTGTTGCTA (site AGGTTCCCTCA) | 0.0107 |
| AGGTTCCCTTGGGTTCTAACCTGTTGCTA (site AGGTTCCCTGA) | 0.0194 |
| AGGTTCCCTTGGGTTCTAACCTGTTGCTA (site AGGTTCCCTTA) | 1.32 |
| AGGTTCCCTTGGGTTCTAACCTGTTGCTT (site AGGTTCCCTAA) | 1.41 |
| AGGTTCCCTTGGGTTCTAACCTGTTGCTT (site AGGTTCCCTCA) | 0.0899 |

| Sequence | recombinant barcode read abundance (log10) |
| --- | --- |
| AGGTTCCCTTGGGTTCTAACCTGTTGCTT (site AGGTTCCCTGA) | 0.621 |
| AGGTTCCCTTGGGTTCTAACCTGTTGCTT (site AGGTTCCCTTA) | 0.183 |
| AGGTTTGCTTGGGTTCTAACCTGTTGCCT (site AGGTATGCTAG) | 0.168 |
| AGGTTTGCTTGGGTTCTAACCTGTTGCCT (site AGGTCTGCTAG) | 0.471 |
| AGGTTTGCTTGGGTTCTAACCTGTTGCCT (site AGGTGTGCTAG) | 0.018 |
| AGGTTTGCTTGGGTTCTAACCTGTTGCCT (site AGGTTTGCTAG) | 0.0479 |
| AGGTTTGCTTGGGTTCTAACCTGTTGCTT (site AGGTTTGCTAA) | 0.00886 |
| AGGTTTGCTTGGGTTCTAACCTGTTGCTT (site GTCACAACTCG) | 0.101 |
| AGTACGCCTTGGGTTCTAACCTGTTGCCT (site AGTACGCCTAG) | 0.0474 |
| AGTACGCCTTGGGTTCTAACCTGTTGCCT (site TGAACGCCTAG) | 0.07 |
| AGTAGAACTTGGGTTCTAACCTGTTGCCT (site AGTAGAACTAG) | 0.387 |
| AGTAGAACTTGGGTTCTAACCTGTTGCCT (site CGTAGAGCTAG) | 0.172 |
| AGTAGGACTTGGGTTCTAACCTGTTGCCT (site AGTAGGACTAG) | 0.242 |
| AGTAGGACTTGGGTTCTAACCTGTTGCCT (site CGTAGGACTAG) | 0 |
| AGTAGGACTTGGGTTCTAACCTGTTGCCT (site GGTAGGACTAG) | 0.0674 |
| AGTAGGACTTGGGTTCTAACCTGTTGCCT (site TGTAGGACTAG) | 0.213 |
| AGTAGTTCTTGGGTTCTAACCTGTTGCAG (site AGTAGTTCTCT) | 0.683 |
| AGTAGTTCTTGGGTTCTAACCTGTTGCAG (site CTCGTAGCTAG) | 0.104 |
| AGTCAAACTTGGGTTCTAACCTGTTGCCT (site AGTCAAACTAG) | 0.157 |
| AGTCAAACTTGGGTTCTAACCTGTTGCCT (site AGTCATACTAG) | 0.141 |
| AGTCACACTTGGGTTCTAACCTGTTGCTA (site AGTCACACTCA) | 0.179 |

| Sequence | recombinant barcode read abundance (log10) |
| --- | --- |
| AGTCACACTTGGGTTCTAACCTGTTGCTA (site AGTCACACTTA) | 1.48 |
| AGTCAGTCTTGGGTTCTAACCTGTTGCGT (site AGTCAGTCTAC) | 2.33 |
| AGTCAGTCTTGGGTTCTAACCTGTTGCGT (site AGTCATTCTAT) | 0.0526 |
| AGTCATACTTGGGTTCTAACCTGTTGCCT (site AGTCAAACTAG) | 0 |
| AGTCATACTTGGGTTCTAACCTGTTGCCT (site AGTCATACTAG) | 0.232 |
| AGTCATCCTTGGGTTCTAACCTGTTGCCT (site AGTCATACTAT) | 0.0998 |
| AGTCATCCTTGGGTTCTAACCTGTTGCCT (site AGTCATCCTAG) | 0.667 |
| AGTCCTGCTTGGGTTCTAACCTGTTGCCT (site AGTCCTGCTAG) | 0.722 |
| AGTCCTGCTTGGGTTCTAACCTGTTGCCT (site CGTCCTGCTAG) | 0.072 |
| AGTCCTGCTTGGGTTCTAACCTGTTGCCT (site GGTCCTGCTAG) | 0.154 |
| AGTCCTGCTTGGGTTCTAACCTGTTGCCT (site TGTCCTGCTAG) | 0.0318 |
| AGTCGATCTTGGGTTCTAACCTGTTGCTT (site ACTCGATCTAG) | 0.0101 |
| AGTCGATCTTGGGTTCTAACCTGTTGCTT (site AGTCGATCTAA) | 0.496 |
| AGTCGGCCTTGGGTTCTAACCTGTTGCCT (site AGTCGGCCTAG) | 0.129 |
| AGTCGGCCTTGGGTTCTAACCTGTTGCCT (site ATTCGGCCTAG) | 0.228 |
| AGTCGGTCTTGGGTTCTAACCTGTTGCAT (site AGTCGGTCTAT) | 0.813 |
| AGTCGGTCTTGGGTTCTAACCTGTTGCAT (site GGTCCGTCTAT) | 0.0825 |
| AGTCTACCTTGGGTTCTAACCTGTTGCTT (site AGTCTACCTAA) | 0.331 |
| AGTCTACCTTGGGTTCTAACCTGTTGCTT (site CGTCTACCTAA) | 0.0324 |
| AGTCTAGCTTGGGTTCTAACCTGTTGCCT (site AGTCTAGCTAG) | 0.0325 |
| AGTCTAGCTTGGGTTCTAACCTGTTGCCT (site AGTCTAGCTCG) | 0.692 |

| Sequence | recombinant barcode read abundance (log10) |
| --- | --- |
| AGTCTAGCTTGGGTTCTAACCTGTTGCCT (site AGTCTAGCTGG) | 0.141 |
| AGTCTAGCTTGGGTTCTAACCTGTTGCCT (site AGTCTAGCTTG) | 0.0207 |
| AGTCTAGCTTGGGTTCTAACCTGTTGCTA (site AGTCTAGCTGA) | 0.166 |
| AGTCTAGCTTGGGTTCTAACCTGTTGCTA (site AGTCTAGCTTA) | 0.175 |
| AGTGAGACTTGGGTTCTAACCTGTTGCGG (site ACCGAGACTCC) | 1.09 |
| AGTGAGACTTGGGTTCTAACCTGTTGCGG (site AGTGAGACTCC) | 2.99 |
| AGTGCGCCTTGGGTTCTAACCTGTTGCTA (site AGTGCGCCTTA) | 0.341 |
| AGTGCGCCTTGGGTTCTAACCTGTTGCTA (site AGTTCGCCTTA) | 0.29 |
| AGTGTCGCTTGGGTTCTAACCTGTTGCGG (site AGTATCGCTCC) | 0.96 |
| AGTGTCGCTTGGGTTCTAACCTGTTGCGG (site AGTCTCGCTCC) | 0.0162 |
| AGTGTCGCTTGGGTTCTAACCTGTTGCGG (site AGTGTCGCTCC) | 1.6 |
| AGTGTCGCTTGGGTTCTAACCTGTTGCGG (site AGTTTCGCTCC) | 0.301 |
| AGTTCTCCTTGGGTTCTAACCTGTTGCCT (site AGTTCTCCTAG) | 0.0504 |
| AGTTCTCCTTGGGTTCTAACCTGTTGCCT (site CGTTCTCCTAG) | 0.415 |
| AGTTCTCCTTGGGTTCTAACCTGTTGCCT (site GGTTCTCCTAG) | 0.207 |
| AGTTCTCCTTGGGTTCTAACCTGTTGCCT (site TGTTCTCCTAG) | 0.456 |
| AGTTGCACTTGGGTTCTAACCTGTTGCCT (site AGTTACACTAG) | 0.14 |
| AGTTGCACTTGGGTTCTAACCTGTTGCCT (site AGTTCCACTAG) | 0.11 |
| AGTTGCACTTGGGTTCTAACCTGTTGCCT (site AGTTGCACTAG) | 0.423 |
